Measured values taken from patent US20230107216A1, “PANTETHEINE DERIVATIVES AND USES THEREOF” (Comet Therapeutics, Inc., priority 2018, published 2023).

Legend:
[1] = test system: Bronchial epithelial cells co-cultured with dermal fibroblast (BF4T system); experiment: BioMAP BF4T system (TNFα and IL-4); type: cell-based, human; settings: for activation at 10 µM / activation at 1 µM: Homo sapiens, 24 h, read-out: % increase in VCAM-1
[2] = test system: Peripheral blood mononuclear cells co-cultured with B-cells (BT system); experiment: cells; settings: Homo sapiens, 72 h; for activation at 1 µM / activation at 10 µM: read-out: % increase in sIL-6
[3] = test system: tyrosine hydroxylase positive mesencephalic neurons injured by MPP+; experiment: Neuroprotective effect on damage induced by MPP+ on culture of mesencephalic neurons; type: cell-based; settings: Rattus norvegicus, Neuron, MPP+ 50 μM, 48h, read-out: % reversion of TH positive neurons (MPTP-mediated degradation of dopaminergic neurons)
Source text: A female Wistar rat (Janvier; France) of 15 days gestation was terminated by cervical dislocation, the fetuses were removed from the uterus and their brains were harvested and placed in ice-cold medium (Leibovitz's L15 medium, Gibco). Only ventral mesencephalic flexure was used for the cell preparations. The midbrain was dissociated by trypsinization. The reaction was stopped, and the suspension was triturated and centrifuged. The pellet of dissociated cells was resuspended in chemically defined medium consisted of Neurobasal (Gibco), containing B27 supplement (Gibco) and L-glutamine (Gibco), 10 ng/ml (BDNF; Pepro Tech, France) and 1 ng/ml (GDNF; Pepro Tech).
Viable primary rat embryo mesencephalic cells were counted and seeded on 96-multi-wells plate precoated with poly-L-lysine. Cells were maintained in a humidified incubator at 37° C. in 5% CO2-95% air atmosphere and medium changed on day 2. On day 6, the culture medium was removed and replaced by new media without neurotrophic factors containing the compounds of the present disclosure (50-10 μM) or vehicle (0.1% DMSO). After 1h exposure, injury of mesencephalon neuronal cultures was induced by MPP^+ (50 μM) for further 48h. A mixture of the growth factors GDNF (1 ng/ml) and BDNF (10 ng/ml) were used as reference compound. On day 8, the tyrosine hydroxylase positive neurons were evaluated. Cultures were fixed 30 min at 4° C. with paraformaldehyde in PBS (4%, Thermo Scientific, 28908). After, cells were permeabilized with 0.1% Triton X100 for 30 min, saturated with PBS containing 3% of BSA (bovine serum albumin) and incubated 2h with anti-tyrosine hydroxylase antibody (Sigma, 1:10000; clone TH-2) at 1/10000 in PBS containing 0.5% of BSA. Cells were washed three times with PBS containing 0.5% of BSA and incubated 1h with goat anti mouse antibody coupled with AF488 (Invitrogen A11001) diluted at 1/1000 in PBS containing 0.5% of BSA. Finally, nuclei were stained with DAPI at 1/1000 in PBS containing 0.5% of BSA. After rinsing with PBS, the plate was visualized and examined with Cell Insight HCS (Thermo Scientific) to determine the number of tyrosine hydroxylase positive cells per well.
The results for each well were expressed as a percentage by setting the density of tyrosine hydroxylase positive cells under control conditions to 100%. Then the result for each condition was reported as mean±SEM from 4 independent cultures.
A global analysis of the data was performed using a one-way analysis of variance (ANOVA), followed by Fisher's Protected Least Significant Difference when applicable. The level of significance was set to p<0.05.

[4] = test system: primary fibroblasts GM00649, GM06225, GM00612, GM00444, GM03672; experiment: MMP, ROS and ATP multiplex (ArrayScan); type: cell-based; settings: Homo sapiens, Fibroblast, procedure Example 838, read-out: Decreased ROS by at least 10%; for inhibition at 50 µM: Leigh GM03672, 50 μM (table line r25)
Protocol: Cell culture and treatments. Primary adherent fibroblasts were cultured in minimum essential medium (MEM) (Gibco, 25030081) supplemented with 2 mM L-Glutamine (Gibco, 25030081), 15% fetal bovine serum (FBS) (Gibco, 26400044) and 1% penicillin/streptomycin (Gibco, 5140122) at 37° C. and 5% CO2. Cells were collected for either passaging or experiment at ˜70-80% confluence. Cells were obtained by trypsinization and seeded at 10000 cells/well in cell culture microplates (Seahorse Bioscience, 101085-004) and allowed to adhere for 16 hours in culture media. After media was refreshed with DMEM (Agilent Seahorse 103575-100) supplemented with 1 mM glucose and 10% FBS (Gibco, 26400044). At the end of the incubation period, the cells were loaded with the relevant dye/antibody for each cell health marker. The assay provided simultaneous measurement of cell health parameters including cell count, ROS formation (DHE), mitochondrial membrane potential (MitoTracker®) and cellular ATP content (CellTiter-Glo®, Promega). The plates were then scanned using an automated fluorescent cellular imager, ArrayScan® (Thermo Scientific Cellomics). Assay conditions were optimized by one skilled in the art.
Primary cells used in this example were obtained from Coriell Institute for Medical Research and consisted of GM00649, MSUD (Maple Syrup Urine Disease) Tyle IA; GM06225, Kearns-Sayre Syndrome; GM00612, MSUD (Maple Syrup Urine Disease) Tyle II GM00444, Pyruvate Carboxylase Deficiency and GM03672, Leigh Syndrome.

[5] = 10 uM, procedure of Example 830

## COC(=O)CCC(=O)SCCNC(=O)CCNC(=O)[C@H](OC(=O)CNC(C)=O)C(C)(C)CO [Compound 1298, methyl 4-[(2-[3-[(2R)-2-[(2-acetamidoacetyl)oxy]-4-hydroxy-3,3-dimethylbutanamido]propanamido]ethyl)sulfanyl]-4-oxobutanoate]
[1]; [5]
  activation at 10 µM: ≥ 10%
[2]
  activation at 1 µM: ≥ 10%

## C[C@@H](O)CC(=O)CC(=O)SCCNC(=O)CCNC(=O)[C@H](O)C(C)(C)CO [Compound 42, (2R)-2,4-dihydroxy-N-[2-[(2-[[(5R)-5-hydroxy-3-oxohexanoyl]sulfanyl]ethyl)carbamoyl]ethyl]-3,3-dimethylbutanamide]
[3]
  inhibition at 10 µM: ≥ 60%
[1]; 10 uM
  % decrease in IL-1α: ≥10%
[1]; [5]
  % increase in Eotaxin-3: ≥10%
  % increase in MMP-3: ≥10%
  % increase in keratin 8/18: ≥10%
  activation at 10 µM: ≥ 10%

## CC(C)(CO)[C@@H](O)C(=O)NCCC(=O)NCCSC(=O)CC(=O)CCC(=O)O [Compound 2, 6-[(2-[3-[(2R)-2,4-dihydroxy-3,3-dimethylbutanamido]propanamido]ethyl)sulfanyl]-4,6-dioxohexanoic acid]
[4]
  inhibition at 50 µM: ≥ 10%
[4]; PC GM00444, 5 μM
  inhibition at 5 µM: ≥ 10%

## COC(=O)CCC(=O)SCCNC(=O)CCNC(=O)[C@H](OC(=O)CN)C(C)(C)CO [Compound 1294, methyl 4-[(2-[3-[(2R)-2-[(2-aminoacetyl)oxy]-4-hydroxy-3,3-dimethylbutanamido]propanamido]ethyl)sulfanyl]-4-oxobutanoate]
[1]; [5]
  % decrease in tPA: ≥10%
[2]; read-out: % decrease in sIL-17
  inhibition at 1 µM: ≥ 20%

## C[C@H](O)CC(=O)CC(=O)SCCNC(=O)CCNC(=O)[C@H](O)C(C)(C)CO [Compound 1306, (2R)-2,4-dihydroxy-N-[2-[(2-[[(5S)-5-hydroxy-3-oxohexanoyl]sulfanyl]ethyl)carbamoyl]ethyl]-3,3-dimethylbutanamide]
[4]
  inhibition at 50 µM: ≥ 10%

## CC(C)(COC(=O)OCC[N+](C)(C)C)[C@@H](O)C(=O)NCCC(=O)NCCSC(=O)CCC(=O)O [Compound 116, [2-([[(3R)-3-[[2-([2-[(3-carboxypropanoyl)sulfanyl]ethyl]carbamoyl)ethyl]carbamoyl]-3-hydroxy-2,2-dimethylpropoxy]carbonyl]oxy)ethyl]trimethylazanium]
[3]
  inhibition at 10 µM: ≥ 30%
[1]; 1 uM, procedure of Example 830
  % increase in MMP-3: ≥10%
  % increase in keratin 8/18: ≥10%
[1]; 10 uM
  % decrease in IL-1α: ≥10%
[1]; [5]
  activation at 10 µM: ≥ 10%

## CCC(=O)CC(=O)SCCNC(=O)CCNC(=O)[C@H](O)C(C)(C)CO [Compound 382, (2R)-2,4-dihydroxy-3,3-dimethyl-N-[2-([2-[(3-oxopentanoyl)sulfanyl]ethyl]carbamoyl)ethyl]butanamide]
[4]
  inhibition at 50 µM: ≥ 10%

## CC(C)(CO)[C@@H](O)C(=O)NCCC(=O)NCCSC(=O)CCC(=O)O [Compound 1, (R)-4-((2-(3-(2,4-dihydroxy-3,3-dimethylbutanamido)propanamido)ethyl)thio)-4-oxobutanoic acid]
[3]
  inhibition at 10 µM: ≥ 30%

## CC(=O)SCCNC(=O)CCNC(=O)[C@H](O)C(C)(C)COC(=O)[C@@H](N)Cc1ccc(O)c(O)c1 [Compound 498, (3R)-3-[(2-[[2-(acetylsulfanyl)ethyl]carbamoyl]ethyl)carbamoyl]-3-hydroxy-2,2-dimethylpropyl (2S)-2-amino-3-(3,4-dihydroxyphenyl)propanoate]
[3]
  inhibition at 10 µM: ≥ 60%
[1]; 1 uM, procedure of Example 830
  % increase in 1L-8: ≥10%
  % increase in MCP-1: ≥10%
[1]; 10 uM
  % decrease in IL-1α: ≥10%
[1]; [5]
  % increase in Eotaxin-3: ≥10%
  % increase in MMP-9: ≥10%
  activation at 10 µM: ≥ 10%
[2]
  activation at 10 µM: ≥ 10%

## CC(C)(CO)[C@@H](O)C(=O)NCCC(=O)NCCSC(=O)[C@@H](N)Cc1ccc(O)c(O)c1 [Compound 371, (2R)—N-[2-[(2-[[(2S)-2-amino-3-(3,4-dihydroxyphenyl)propanoyl]sulfanyl]ethyl)carbamoyl]ethyl]-2,4-dihydroxy-3,3-dimethylbutanamide]
[3]
  inhibition at 10 µM: ≥ 60%
[1]; 1 uM, procedure of Example 830
  % increase in MCP-1: ≥10%
  % increase in MMP-9: ≥10%
  activation at 1 µM: ≥ 10%
[1]; [5]
  % increase in Eotaxin-3: ≥10%
[2]; read-out: % decrease in sIL-17
  inhibition at 10 µM: ≥ 20%

## CC(=O)OCC(C)(C)[C@@H](OC(C)=O)C(=O)NCCC(=O)NCCSC(C)=O [Compound 1264, (1R)-3-(acetyloxy)-1-[(2-[[2-(acetylsulfanyl)ethyl]carbamoyl]ethyl)carbamoyl]-2,2-dimethylpropyl acetate]
[1]; 1 uM, procedure of Example 830
  activation at 1 µM: ≥ 10%

## COC(=O)CC(SCCNC(=O)CCNC(=O)[C@H](O)C(C)(C)COC(C)=O)C(=O)OC (stereo partly drawn) [Compound 149, 1,4-dimethyl 2-[(2-[3-[(2R)-4-(acetyloxy)-2-hydroxy-3,3-dimethylbutanamido]propanamido]ethyl)sulfanyl]butanedioate]
[1]; 1 uM, procedure of Example 830
  % decrease in MMP-9: ≥10%
[1]; [5]
  % increase in Eotaxin-3: ≥10%
  activation at 10 µM: ≥ 10%

## COC(=O)CC(C(C)=O)C(=O)SCCNC(=O)CCNC(=O)[C@H](O)C(C)(C)CO (some centres unmarked) [Compound 410]
[3]
  inhibition at 10 µM: ≥ 60%
[4]
  inhibition at 50 µM: ≥ 10%

## CC(=O)SCCNC(=O)CCNC(=O)[C@H](O)C(C)(C)COC(=O)[C@H](C)N [Compound 502, (3R)-3-[(2-[[2-(acetylsulfanyl)ethyl]carbamoyl]ethyl)carbamoyl]-3-hydroxy-2,2-dimethylpropyl (2S)-2-aminopropanoate]
[1]; 10 uM
  % decrease in IL-1α: ≥10%
[1]; 1 uM, procedure of Example 830
  activation at 1 µM: ≥ 10%
[2]; read-out: % decrease in sIL-17
  inhibition at 1 µM: ≥ 20%
[2]
  activation at 10 µM: ≥ 10%

## C[C@@H](O)CC(=O)SCCNC(=O)CCNC(=O)[C@H](O)C(C)(C)CO [Compound 38, S-2-{3-[(R)-2,4-dihydroxy-3,3-dimethylbutyrylamino]propionylamino} ethyl (R)-3-hydroxybutanethioate]
[3]
  inhibition at 10 µM: ≥ 60%

## CC(C)(CO)[C@@H](O)C(=O)NCCC(=O)NCCSC(=O)CCCO [Compound 1304, (2R)-2,4-dihydroxy-N-[2-([2-[(4-hydroxybutanoyl)sulfanyl]ethyl]carbamoyl)ethyl]-3,3-dimethylbutanamide]
[4]
  inhibition at 50 µM: ≥ 10%

## CCCCCCC(=O)SCCNC(=O)CCNC(=O)[C@H](O)C(C)(C)CO [Compound 372, (2R)—N-(2-[[2-(heptanoylsulfanyl)ethyl]carbamoyl]ethyl)-2,4-dihydroxy-3,3-dimethylbutanamide]
[1]; 1 uM, procedure of Example 830
  activation at 1 µM: ≥ 10%
[2]
  activation at 1 µM: ≥ 10%

## COC(=O)CCC(=O)SCCNC(=O)CCNC(=O)[C@H](O)C(C)(C)COC(C)=O [Compound 138]
[2]; read-out: % decrease in sIL-17
  inhibition at 1 µM: ≥ 20%

## CC(=O)SCCNC(=O)CCNC(=O)[C@H](O)C(C)(C)COC(=O)CN [Compound 560, (3R)-3-[(2-[[2-(acetylsulfanyl)ethyl]carbamoyl]ethyl)carbamoyl]-3-hydroxy-2,2-dimethylpropyl 2-aminoacetate]
[3]
  inhibition at 10 µM: ≥ 30%
